Measurements published in PMC11753388, “Bispecific Thio‐Linked Disaccharides as Inhibitors of Pseudomonas Aeruginosa Lectins LecA (PA‐IL) and LecB (PA‐IIL): Dual‐Targeting Strategy” (Chemistry (Weinheim an Der Bergstrasse, Germany), 2024).
Like-named read-outs stand apart in the source and are kept apart here.

How the values were obtained:
[1] = target: T1, LecB (PA-IIL) (Pseudomonas aeruginosa, UniProt Q9HYN5); assay: yeast agglutination inhibition, microscopy; assay type: biochemical; conditions: LecB 625 μg/ml, yeast cells; complete inhibition
T1 construct: soluble calcium-dependent homotetramer, one site per monomer
T1 sequence (Q9HYN5 entry or part of it): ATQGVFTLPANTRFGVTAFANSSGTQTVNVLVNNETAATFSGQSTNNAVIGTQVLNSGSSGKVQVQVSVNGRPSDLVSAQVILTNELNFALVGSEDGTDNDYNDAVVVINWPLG
Text: yeast agglutination inhibition, microscopy on LecB (PA-IIL)

[2] = target: T2, LecA (PA-IL) (Pseudomonas aeruginosa, UniProt Q05097); assay: hemagglutination inhibition, microscopy; assay type: biochemical; conditions: LecA 125 μg/ml, group O red blood cells; complete inhibition
T2 construct: soluble calcium-dependent homotetramer, one site per monomer
T2 sequence (Q05097 2-122): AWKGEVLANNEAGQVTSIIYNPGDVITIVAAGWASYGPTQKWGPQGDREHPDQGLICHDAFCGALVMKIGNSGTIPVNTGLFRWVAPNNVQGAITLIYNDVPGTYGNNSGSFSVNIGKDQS
Text: hemagglutination inhibition, microscopy on LecA (PA-IL)

[3] = target: T2, LecA (PA-IL); assay: isothermal titration calorimetry; assay type: binding
Text: isothermal titration calorimetry on LecA (PA-IL)

[4] = target: T1, LecB (PA-IIL); assay: isothermal titration calorimetry; assay type: binding

SMILES: C[C@@H]1O[C@@H](S[C@@H]2O[C@@H](C)[C@@H](O)[C@@H](O)[C@@H]2O)[C@@H](O)[C@H](O)[C@@H]1O [compound 25, Thio‐L‐Fuc‐α(1,1)α‐L‐Fuc]
- LecB / MIC [1]: 6.10 µM

SMILES: OC[C@H]1O[C@H](S[C@H]2O[C@H](CO)[C@@H](O)[C@H](O)[C@H]2O)[C@H](O)[C@@H](O)[C@H]1O [compound 30, Thio‐D‐Gal‐α(1,1)α‐D‐Glc]
- LecA / MIC [2]: 390 µM

SMILES: C[C@H]1O[C@H](S[C@H]2O[C@H](CO)[C@H](O)[C@H](O)[C@H]2O)[C@H](O)[C@@H](O)[C@H]1O [compound 28, Thio‐D‐Fuc‐α(1,1)α‐D‐Gal]
- LecA / MIC [2]: 390 µM

SMILES: OC[C@H]1OC(O)[C@H](O)[C@@H](O)[C@H]1O (stereo partly drawn) [D-Galactose]
- Kd ([3]; read-out: LecA / KD, 300 μM lectin, 2 mM ligand, non-sigmoid curve, n apparent): 175 µM

SMILES: C[C@@H]1O[C@@H](S[C@@H]2O[C@H](CO)[C@H](O)[C@H](O)[C@H]2O)[C@@H](O)[C@H](O)[C@@H]1O [compound 14, Thio‐L‐Fuc‐α(1,1)β‐D‐Gal]
- Kd [3]: 115 µM
- Kd [4]: 0.35 µM

SMILES: C[C@@H]1O[C@@H](S[C@H]2O[C@H](CO)[C@H](O)[C@H](O)[C@H]2O)[C@@H](O)[C@H](O)[C@@H]1O [compound 27, Thio‐L‐Fuc‐α(1,1)α‐D‐Gal]
- Kd [3]: 55.6 µM
- Kd [4]: 0.19 µM

SMILES: C[C@@H]1O[C@@H](S[C@H]2O[C@H](CO)[C@@H](O)[C@H](O)[C@H]2O)[C@@H](O)[C@H](O)[C@@H]1O [compound 26, Thio‐L‐Fuc‐α(1,1)α‐D‐Glc]
- LecB / MIC [1]: 6.10 µM

SMILES: OC[C@H]1O[C@H](S[C@H]2O[C@H](CO)[C@H](O)[C@H](O)[C@H]2O)[C@H](O)[C@@H](O)[C@H]1O [compound 29, Thio‐D‐Gal‐α(1,1)α‐D‐Gal]
- LecA / MIC [2]: 97.5 µM
